Assay results: patent publication US8455688B2, “HDAC inhibitors” (Lixte Biotechnology, Inc., priority 2007, dated 2013)
“Also recorded” adds a separate entry of the source.

Experiments:
[1] = test system: MOLT-4 Leukemia acute lympho; test: CellTiter-Glo proliferation assay, MOLT-4; type: cell-based; details: Homo sapiens, 72 hr incubation, read-out: IC50 (50% inhibition of proliferation)
From the text: (§1) MDA-MB-231, HT-29, NCI-H460, NCI-H522, NCI-H69, GXF-209, HepG2, OVAR-3, PANC-1, DU-145, LNCAP, HL-60, K-562, and MOLT-4 cell lines were either obtained from the American Type Culture Collection (ATCC; Manassas, Va.), or from the National Cancer Institute (NCl; Frederick, Md.). RPM-1640 media, L-glutamine dipeptide (HyQ SG-200), and HEPES were obtained from Hyclone (Logan, Utah). Fetal bovine serum (FBS) was obtained from Sigma-Aldrich, (St. Louis, Mo.). DMSO was purchases from Fisher Chemicals (Fair Lawn, N.J.). The CellTiter-Glo Luminescent Cell Viability Assay reagent was obtained from Promega Corporation (Madison, Wis.). All tissue culture plasticware was obtained from Corning Incorporated (New York, N.Y.). Compound 100 and Compound 102 were provided by Lixte Biotechnology Holdings, Inc. (East Setauket, N.Y.). All cell lines were routinely cultured twice weekly in RPMI-1640 medium supplemented with 2 mM L-glutamine dipeptide, 10 mM HEPES, and 10% FBS. The adherent cell lines MDA-MB-231, HT-29, NCI-H460, NCI-H522, GXF-209, HepG2, OVAR-3, PANC-1, DU-145, and LNCAP cells were each seeded into two 96-well plates at 2,500 cells per well in a total volume of 50 uL and incubated in a 37 C humidified 5% CO2 cell culture incubator overnight. […] Luminescence was then recorded using the PerkinElmer Microbeta scintillation and luminescence counter (Trilux).

LNCAP Prostate = test: CellTiter-Glo proliferation assay, LNCAP; type: cell-based; details: Homo sapiens, 72 hr incubation, read-out: IC50 (50% inhibition of proliferation)
From the text: as §1

NCI-H460 Lung large cell = test: CellTiter-Glo proliferation assay, NCI-H460; type: cell-based; details: Homo sapiens, 72 hr incubation, read-out: IC50 (50% inhibition of proliferation)
From the text: as §1

normal mouse brain cells = test: Viability of normal mouse brain cells
human cancer cell lines = test: Proliferation of multiple human cancer cell lines (panel summary); type: cell-based; details: panel of Table 2
From the text: as §1

SHSY-5Y xenografts = test: Inhibition of SHSY-5Y xenografts; details: in vivo
OVCAR-3 Ovary adenoca = test: CellTiter-Glo proliferation assay, OVCAR-3; type: cell-based; details: Homo sapiens, 72 hr incubation, read-out: IC50 (50% inhibition of proliferation)
From the text: as §1

NCI-H522 Lung adenoca = test: CellTiter-Glo proliferation assay, NCI-H522; type: cell-based; details: Homo sapiens, 72 hr incubation, read-out: IC50 (50% inhibition of proliferation)
From the text: as §1

HepG2 Hepatoma = test: CellTiter-Glo proliferation assay, HepG2; type: cell-based; details: Homo sapiens, 72 hr incubation, read-out: IC50 (50% inhibition of proliferation)
From the text: as §1

[2] = test system: K562 Leukemia chronic myelo; test: CellTiter-Glo proliferation assay, K562; type: cell-based; details: Homo sapiens, 72 hr incubation, read-out: IC50 (50% inhibition of proliferation)
From the text: as §1

MDA-MB-231 Breast = test: CellTiter-Glo proliferation assay, MDA-MB-231; type: cell-based; details: Homo sapiens, 72 hr incubation, read-out: IC50 (50% inhibition of proliferation)
From the text: as §1

[3] = test system: medulloblastoma cell line DAOY; test: Inhibition of growth of medulloblastoma cell line DAOY; type: cell-based
[4] = test system: HL-60 Leukemia promyelocytic; test: CellTiter-Glo proliferation assay, HL-60; type: cell-based; details: Homo sapiens, 72 hr incubation, estimated from the data, no curve fit possible, read-out: IC50 (50% inhibition of proliferation)
From the text: as §1

HT-29 Colon = test: CellTiter-Glo proliferation assay, HT-29; type: cell-based; details: Homo sapiens, 72 hr incubation, read-out: IC50 (50% inhibition of proliferation)
From the text: as §1

DU-145 Prostate = test: CellTiter-Glo proliferation assay, DU-145; type: cell-based; details: Homo sapiens, 72 hr incubation, read-out: IC50 (50% inhibition of proliferation)
From the text: as §1

GXF-209 Stomach = test: CellTiter-Glo proliferation assay, GXF-209; type: cell-based; details: Homo sapiens, 72 hr incubation, read-out: IC50 (50% inhibition of proliferation)
From the text: as §1

PANC-1 Pancreas = test: CellTiter-Glo proliferation assay, PANC-1; type: cell-based; details: Homo sapiens, 72 hr incubation, read-out: IC50 (50% inhibition of proliferation)
From the text: as §1

NCI-H69 Lung small cell = test: CellTiter-Glo proliferation assay, NCI-H69; type: cell-based; details: Homo sapiens, 72 hr incubation, read-out: IC50 (50% inhibition of proliferation)
From the text: as §1

Row | IC50 [1] [µM] | IC50 (LNCAP Prostate) [µM] | IC50 (NCI-H460 Lung large cell) [µM] | IC50 (OVCAR-3 Ovary adenoca) [µM] | IC50 (NCI-H522 Lung adenoca) [µM] | IC50 (HepG2 Hepatoma) [µM] | IC50 [2] [µM] | IC50 (MDA-MB-231 Breast) [µM] | IC50 [4] [µM] | IC50 (HT-29 Colon) [µM] | IC50 (DU-145 Prostate) [µM] | IC50 (PANC-1 Pancreas) [µM] | IC50 (NCI-H69 Lung small cell) [µM] | melting point [°C] | SMILES | viability of normal mouse brain cells compared to control (normal mouse brain cells) | activity against human cancer cell lines (human cancer cell lines) | cancer types against which most active (human cancer cell lines) | activity against the growth of SHSY-5Y xenografts (SHSY-5Y xenografts) | activity against medulloblastoma cell line DAOY [3] | IC50 (GXF-209 Stomach) [µM]
1 | 26.3 | 6.2 | > 100 | 18.7 | 1.8 | 53.1 | 58.3 | 24.8 | ~60 | 47.6 | 50.2 | 11.9 | 16.1 |  | O=C(CCCCCNC(=O)c1ccccc1S)Nc1cccnc1 [Compound 205, 2-Mercapto-N-[5-(pyridin-3-ylcarbamoyl)pentyl]benzamide] | high viability | low uM range; also recorded: active against multiple human cancer cell lines at low micromolar concentrations | most active against lung adenocarcinoma, stomach cancer, pancreatic cancer, and breast cancer | shows activity | active | 22
2 |  |  |  |  |  |  |  |  |  |  |  |  |  | 108 to 110 | CN(C)c1ccc(NC(=O)CCCCCNC(=O)c2ccccc2S)cc1 [Compound 206, 2-Mercapto-N-[5-(4-dimethylamino-3-yl-carbamoyl)pentyl]benzamide] |  |  |  |  |  | 
